{"source": "patent US8299111B2", "about": "“Compounds which modulate the CB2 receptor” (Boehringer Ingelheim International GmbH, priority 2006, dated 2012)"}
{"target": "T1, human CB2R (Homo sapiens, UniProt P34972)", "T1 construct": "host or cells: CHO cells", "T1 sequence (P34972 whole entry)": "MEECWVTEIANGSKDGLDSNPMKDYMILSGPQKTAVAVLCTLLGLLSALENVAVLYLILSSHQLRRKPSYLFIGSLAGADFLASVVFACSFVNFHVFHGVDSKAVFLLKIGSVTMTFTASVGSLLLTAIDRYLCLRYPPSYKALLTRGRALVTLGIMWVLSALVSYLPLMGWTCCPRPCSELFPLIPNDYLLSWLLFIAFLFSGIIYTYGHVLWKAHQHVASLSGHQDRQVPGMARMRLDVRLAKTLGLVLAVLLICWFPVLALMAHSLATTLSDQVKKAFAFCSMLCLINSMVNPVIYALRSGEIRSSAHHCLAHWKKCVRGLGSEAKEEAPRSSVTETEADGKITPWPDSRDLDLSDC", "experiment": "CB2R mediated modulation of cAMP synthesis", "type": "cell-based", "conditions": "found through the use of the above described assays (binding and cAMP); CHO cells expressing human CB2R, forskolin-stimulated cAMP", "description": "B. CB2R Mediated Modulation of cAMP Synthesis:\nCHO cells expressing human CB2R (Euroscreen) were plated at a density of 5000 cells per well in 384 well plates and incubated overnight at 37° C. After removing the media, the cells were treated with test compounds diluted in stimulation buffer containing 1 mM IBMX, 0.25% BSA and 10 uM Forskolin. The assay was incubated for 30 minutes at 37° C. Cells were lysed and the cAMP concentration was measured using DiscoverX -XS cAMP kit, following the manufacturer's protocol. In this setting, agonists will decrease forskolin induced production of cAMP while inverse agonists will further increase forskolin induced production of cAMP. EC50 of agonists were calculated as follows. The maximal amount of cAMP produced by forskolin compared to the level of cAMP inhibited by 1 uM CP55940 is defined as 100%. The EC50 value of each test compound was determined as the concentration at which 50% of the forskolin-stimulated cAMP synthesis was inhibited. Data was analyzed using a four-parameter logistic model. (Model 205 of XLfit 4.0)."}
{"smiles": "Cc1ccc(S(=O)(=O)C(C)(C)C(=O)Nc2cccc(C(F)(F)F)n2)cc1F", "note": "[2-(3-Fluoro-4-methyl-benzenesulfonyl)-2-methyl-N-(6-trifluoromethyl-pyridin-2-yl)-propionamide]", "agonistic activity": "agonistic activity"}
{"smiles": "CC(C)(C(=O)Nc1ccc(C(F)(F)F)cn1)S(=O)(=O)c1cccc(F)c1", "note": "[2-(3-Fluoro-benzenesulfonyl)-2-methyl-N-(5-trifluoromethyl-pyridin-2-yl)-propionamide]", "agonistic activity": "agonistic activity"}
{"smiles": "CC(C)(C(=O)Nc1ccc(C(F)(F)F)cn1)S(=O)(=O)c1ccc(Br)cc1", "note": "[2-(4-Bromo-benzenesulfonyl)-2-methyl-N-(5-trifluoromethyl-pyridin-2-yl)-propionamide]", "agonistic activity": "agonistic activity"}
{"smiles": "CC(C)(C(=O)Nc1cccc(C(F)(F)F)n1)S(=O)(=O)c1ccc(Br)cc1", "note": "[2-(4-Bromo-benzenesulfonyl)-2-methyl-N-(6-trifluoromethyl-pyridin-2-yl)-propionamide]", "agonistic activity": "agonistic activity"}
{"smiles": "Cn1nc(C(C)(C)C)cc1NC(=O)C(C)(C)S(=O)(=O)c1ccc(Br)cc1", "note": "[2-(4-Bromo-benzenesulfonyl)-N-(5-tert-butyl-2-methyl-2H-pyrazol-3-yl)-2-methyl-propionamide]", "agonistic activity": "agonistic activity"}
{"smiles": "CC(C)(C)c1cc(NC(=O)C(C)(C)S(=O)(=O)c2ccc(Br)cc2)no1", "note": "[2-(4-Bromo-benzenesulfonyl)-N-(5-tert-butyl-isoxazol-3-yl)-2-methyl-propionamide]", "agonistic activity": "agonistic activity"}
{"smiles": "Cn1nc(-c2ccccc2)cc1NC(=O)C(C)(C)S(=O)(=O)c1ccc(Cl)cc1F", "note": "[2-(4-Chloro-2-fluoro-benzenesulfonyl)-2-methyl-N-(2-methyl-5-phenyl-2H-pyrazol-3-yl)-propionamide]", "agonistic activity": "agonistic activity"}
{"smiles": "CC(C)(C(=O)Nc1cc(C(F)(F)F)ccn1)S(=O)(=O)c1ccc(Cl)cc1F", "note": "[2-(4-Chloro-2-fluoro-benzenesulfonyl)-2-methyl-N-(4-trifluoromethyl-pyridin-2-yl)-propionamide]", "agonistic activity": "agonistic activity"}
{"smiles": "CC(C)(C(=O)Nc1ccc(C(F)(F)F)cn1)S(=O)(=O)c1ccc(Cl)cc1F", "note": "[2-(4-Chloro-2-fluoro-benzenesulfonyl)-2-methyl-N-(5-trifluoromethyl-pyridin-2-yl)-propionamide]", "agonistic activity": "agonistic activity"}
{"smiles": "CC(C)(C(=O)Nc1cccc(C(F)(F)F)n1)S(=O)(=O)c1ccc(Cl)cc1F", "note": "[2-(4-Chloro-2-fluoro-benzenesulfonyl)-2-methyl-N-(6-trifluoromethyl-pyridin-2-yl)-propionamide]", "agonistic activity": "agonistic activity"}
{"smiles": "CCc1sc(NC(=O)C(C)(C)S(=O)(=O)c2ccc(Cl)cc2F)nc1-c1ccccc1", "note": "[2-(4-Chloro-2-fluoro-benzenesulfonyl)-N-(5-ethyl-4-phenyl-thiazol-2-yl)-2-methyl-propionamide]", "agonistic activity": "agonistic activity"}
{"smiles": "Cn1c(NC(=O)C(C)(C)S(=O)(=O)c2ccc(Cl)cc2)nc2ccccc21", "note": "[2-(4-Chloro-benzenesulfonyl)-2-methyl-N-(1-methyl-1H-benzoimidazol-2-yl)-propionamide]", "agonistic activity": "agonistic activity"}
{"smiles": "Cn1nc(-c2ccccc2)cc1NC(=O)C(C)(C)S(=O)(=O)c1ccc(Cl)cc1", "note": "[2-(4-Chloro-benzenesulfonyl)-2-methyl-N-(2-methyl-5-phenyl-2H-pyrazol-3-yl)-propionamide]", "agonistic activity": "agonistic activity"}
{"smiles": "Cn1nc(-c2cccs2)cc1NC(=O)C(C)(C)S(=O)(=O)c1ccc(Cl)cc1", "note": "[2-(4-Chloro-benzenesulfonyl)-2-methyl-N-(2-methyl-5-thiophen-2-yl-2H-pyrazol-3-yl)-propionamide]", "agonistic activity": "agonistic activity"}
{"smiles": "CC(C)(C(=O)Nc1ccccc1C(F)(F)F)S(=O)(=O)c1ccc(Cl)cc1", "note": "[2-(4-Chloro-benzenesulfonyl)-2-methyl-N-(2-trifluoromethyl-phenyl)-propionamide]", "agonistic activity": "agonistic activity"}
{"smiles": "Cc1noc(NC(=O)C(C)(C)S(=O)(=O)c2ccc(Cl)cc2)c1-c1ccccc1", "note": "[2-(4-Chloro-benzenesulfonyl)-2-methyl-N-(3-methyl-4-phenyl-isoxazol-5-yl)-propionamide]", "agonistic activity": "agonistic activity"}
{"smiles": "CC(C)(C(=O)Nc1nc(-c2ccccc2)no1)S(=O)(=O)c1ccc(Cl)cc1", "note": "[2-(4-Chloro-benzenesulfonyl)-2-methyl-N-(3-phenyl-[1,2,4]oxadiazol-5-yl)-propionamide]", "agonistic activity": "agonistic activity"}
{"smiles": "CC(C)(C(=O)Nc1nc(-c2ccccc2)ns1)S(=O)(=O)c1ccc(Cl)cc1", "note": "[2-(4-Chloro-benzenesulfonyl)-2-methyl-N-(3-phenyl-[1,2,4]thiadiazol-5-yl)-propionamide]", "agonistic activity": "agonistic activity"}
{"smiles": "CC(C)(C(=O)Nc1cc(-c2ccccc2)no1)S(=O)(=O)c1ccc(Cl)cc1", "note": "[2-(4-Chloro-benzenesulfonyl)-2-methyl-N-(3-phenyl-isoxazol-5-yl)-propionamide]", "agonistic activity": "agonistic activity"}
{"smiles": "CCCc1cc(NC(=O)C(C)(C)S(=O)(=O)c2ccc(Cl)cc2)on1", "note": "[2-(4-Chloro-benzenesulfonyl)-2-methyl-N-(3-propyl-isoxazol-5-yl)-propionamide]", "agonistic activity": "agonistic activity"}
{"smiles": "CC(C)(C(=O)Nc1cc(-c2cccs2)no1)S(=O)(=O)c1ccc(Cl)cc1", "note": "[2-(4-Chloro-benzenesulfonyl)-2-methyl-N-(3-thiophen-2-yl-isoxazol-5-yl)-propionamide]", "agonistic activity": "agonistic activity"}
{"smiles": "CC(C)(C(=O)Nc1cccc(C(F)(F)F)c1)S(=O)(=O)c1ccc(Cl)cc1", "note": "[2-(4-Chloro-benzenesulfonyl)-2-methyl-N-(3-trifluoromethyl-phenyl)-propionamide]", "agonistic activity": "agonistic activity"}
{"smiles": "CC(C)(C(=O)Nc1ncccc1C(F)(F)F)S(=O)(=O)c1ccc(Cl)cc1", "note": "[2-(4-Chloro-benzenesulfonyl)-2-methyl-N-(3-trifluoromethyl-pyridin-2-yl)-propionamide]", "agonistic activity": "agonistic activity"}
{"smiles": "CC(C)(C(=O)Nc1nc2c(s1)CCCC2)S(=O)(=O)c1ccc(Cl)cc1", "note": "[2-(4-Chloro-benzenesulfonyl)-2-methyl-N-(4,5,6,7-tetrahydro-benzothiazol-2-yl)-propionamide]", "agonistic activity": "agonistic activity"}
{"smiles": "Cc1c(-c2ccccc2)noc1NC(=O)C(C)(C)S(=O)(=O)c1ccc(Cl)cc1", "note": "[2-(4-Chloro-benzenesulfonyl)-2-methyl-N-(4-methyl-3-phenyl-isoxazol-5-yl)-propionamide]", "agonistic activity": "agonistic activity"}
{"smiles": "Cc1ccnc(NC(=O)C(C)(C)S(=O)(=O)c2ccc(Cl)cc2)c1", "note": "[2-(4-Chloro-benzenesulfonyl)-2-methyl-N-(4-methyl-pyridin-2-yl)-propionamide]", "agonistic activity": "agonistic activity"}
{"smiles": "Cc1csc(NC(=O)C(C)(C)S(=O)(=O)c2ccc(Cl)cc2)n1", "note": "[2-(4-Chloro-benzenesulfonyl)-2-methyl-N-(4-methyl-thiazol-2-yl)-propionamide]", "agonistic activity": "agonistic activity"}
{"smiles": "CC(C)(C(=O)Nc1nc(-c2ccccc2)co1)S(=O)(=O)c1ccc(Cl)cc1", "note": "[2-(4-Chloro-benzenesulfonyl)-2-methyl-N-(4-phenyl-oxazol-2-yl)-propionamide]", "agonistic activity": "agonistic activity"}
{"smiles": "CC(C)(C(=O)Nc1nc(-c2ccccc2)cs1)S(=O)(=O)c1ccc(Cl)cc1", "note": "[2-(4-Chloro-benzenesulfonyl)-2-methyl-N-(4-phenyl-thiazol-2-yl)-propionamide]", "agonistic activity": "agonistic activity"}
{"smiles": "CC(C)(C(=O)Nc1nc(CN2CCCCC2)cs1)S(=O)(=O)c1ccc(Cl)cc1", "note": "[2-(4-Chloro-benzenesulfonyl)-2-methyl-N-(4-piperidin-1-ylmethyl-thiazol-2-yl)-propionamide]", "agonistic activity": "agonistic activity"}
{"smiles": "CC(C)(C(=O)Nc1nc(-c2ccccn2)cs1)S(=O)(=O)c1ccc(Cl)cc1", "note": "[2-(4-Chloro-benzenesulfonyl)-2-methyl-N-(4-pyridin-2-yl-thiazol-2-yl)-propionamide]", "agonistic activity": "agonistic activity"}
{"smiles": "CC(C)(C(=O)Nc1nc(-c2cccnc2)cs1)S(=O)(=O)c1ccc(Cl)cc1", "note": "[2-(4-Chloro-benzenesulfonyl)-2-methyl-N-(4-pyridin-3-yl-thiazol-2-yl)-propionamide]", "agonistic activity": "agonistic activity"}
{"smiles": "CC(C)(C(=O)Nc1nc(-c2ccncc2)cs1)S(=O)(=O)c1ccc(Cl)cc1", "note": "[2-(4-Chloro-benzenesulfonyl)-2-methyl-N-(4-pyridin-4-yl-thiazol-2-yl)-propionamide]", "agonistic activity": "agonistic activity"}
{"smiles": "CC(C)(C(=O)Nc1nc(-c2cccs2)cs1)S(=O)(=O)c1ccc(Cl)cc1", "note": "[2-(4-Chloro-benzenesulfonyl)-2-methyl-N-(4-thiophen-2-yl-thiazol-2-yl)-propionamide]", "agonistic activity": "agonistic activity"}
{"smiles": "CC(C)(C(=O)Nc1ccc(C(F)(F)F)cc1)S(=O)(=O)c1ccc(Cl)cc1", "note": "[2-(4-Chloro-benzenesulfonyl)-2-methyl-N-(4-trifluoromethyl-phenyl)-propionamide]", "agonistic activity": "agonistic activity"}
{"smiles": "CC(C)(C(=O)Nc1cc(C(F)(F)F)ccn1)S(=O)(=O)c1ccc(Cl)cc1", "note": "[2-(4-Chloro-benzenesulfonyl)-2-methyl-N-(4-trifluoromethyl-pyridin-2-yl)-propionamide]", "agonistic activity": "agonistic activity"}
{"smiles": "CC(C)(C(=O)Nc1nc(C(F)(F)F)cs1)S(=O)(=O)c1ccc(Cl)cc1", "note": "[2-(4-Chloro-benzenesulfonyl)-2-methyl-N-(4-trifluoromethyl-thiazol-2-yl)-propionamide]", "agonistic activity": "agonistic activity"}
